Structures are written as SMILES.

The record followed here is US8722703B2, “Fused amino pyridines for the treatment of brain tumors” (Curis, Inc., priority 2009, dated 2014).

For the assay, the system named is H1975 orthotopic lung tumors. The assay can be described thus: Pharmacodynamic study in H1975 orthotopic lung tumors. As to conditions: 160 mg/kg once. It is filed as in vivo. The source says: Tumors were collected at various time points (n=2-3) and subjected to Western blot analysis.

Turning to `CN(C)c1cc2c(cc1Sc1nc3c(N)nccc3n1CCNCC(C)(C)C)OCO2` [Compound 15, 2-(6-(dimethylamino)benzo[d][1,3]dioxol-5-ylthio)-1-(2-(neopentylamino)ethyl)-1H-imidazo[4,5-c]pyridin-4-amine], the “HSP70, apoptosis and phosphorylated-AKT in tumors (Western blot)” value is “Sustained induction of HSP70 and apoptosis and inhibition of oncoprotein phosphorylated-AKT”.
